Calls of active or inactive are those of the source. No cut-off for these calls is given here.
Experiments:
EKVX = assay: Growth inhibition of human EKVX cells incubated for 48 hrs by sulforhodamine B assay; format: functional
HOP-92 = assay: Growth inhibition of human HOP92 cells incubated for 48 hrs by sulforhodamine B assay; format: functional; details: HOP-92, 48 h
NCI-H322M = assay: Growth inhibition of human NCI-H322M cells incubated for 48 hrs by sulforhodamine B assay; format: functional
NCI-H460 = assay: Growth inhibition of human NCI-H460 cells incubated for 48 hrs by sulforhodamine B assay; format: functional; details: NCI-H460, 48 h
HCC 2998 = assay: Growth inhibition of human HCC2998 cells incubated for 48 hrs by sulforhodamine B assay; format: functional; details: HCC 2998, 48 h
KM12 = assay: Growth inhibition of human KM12 cells incubated for 48 hrs by sulforhodamine B assay; format: functional; details: KM12, 48 h
SF-268 = assay: Growth inhibition of human SF268 cells incubated for 48 hrs by sulforhodamine B assay; format: functional; details: SF-268, 48 h
SF-539 = assay: Growth inhibition of human SF539 cells incubated for 48 hrs by sulforhodamine B assay; format: functional; details: SF-539, 48 h
SNB-19 = assay: Growth inhibition of human SNB19 cells incubated for 48 hrs by sulforhodamine B assay; format: functional; details: SNB-19, 48 h
SNB-75 = assay: Growth inhibition of human SNB75 cells incubated for 48 hrs by sulforhodamine B assay; format: functional; details: SNB-75, 48 h
U-251 = assay: Growth inhibition of human U251 cells incubated for 48 hrs by sulforhodamine B assay; format: functional; details: U-251, 48 h
SK-MEL-28 = assay: Growth inhibition of human SK-MEL-28 cells incubated for 48 hrs by sulforhodamine B assay; format: functional; details: SK-MEL-28, 48 h
OVCAR-3 = assay: Growth inhibition of human OVCAR3 cells incubated for 48 hrs by sulforhodamine B assay; format: functional; details: OVCAR-3, 48 h
OVCAR-4 = assay: Growth inhibition of human OVCAR4 cells incubated for 48 hrs by sulforhodamine B assay; format: functional; details: OVCAR-4, 48 h
OVCAR-5 = assay: Growth inhibition of human OVCAR5 cells incubated for 48 hrs by sulforhodamine B assay; format: functional; details: OVCAR-5, 48 h
OVCAR-8 = assay: Growth inhibition of human OVCAR8 cells incubated for 48 hrs by sulforhodamine B assay; format: functional; details: OVCAR-8, 48 h
NCI/ADR-RES = assay: Growth inhibition of human NCI/ADR-RES cells incubated for 48 hrs by sulforhodamine B assay; format: functional
786-0 = assay: Growth inhibition of human 786-0 cells incubated for 48 hrs by sulforhodamine B assay; format: functional; details: 786-0, 48 h
A498 = assay: Growth inhibition of human A498 cells incubated for 48 hrs by sulforhodamine B assay; format: functional; details: A498, 48 h
ACHN = assay: Growth inhibition of human ACHN cells incubated for 48 hrs by sulforhodamine B assay; format: functional
SN12C = assay: Growth inhibition of human SN12C cells incubated for 48 hrs by sulforhodamine B assay; format: functional
UO-31 = assay: Growth inhibition of human UO31 cells incubated for 48 hrs by sulforhodamine B assay; format: functional; details: UO-31, 48 h
PC-3 = assay: Growth inhibition of human PC3 cells incubated for 48 hrs by sulforhodamine B assay; format: functional; details: PC-3, 48 h
BT-549 = assay: Growth inhibition of human BT549 cells incubated for 48 hrs by sulforhodamine B assay; format: functional; details: BT-549, 48 h
T47D = assay: Growth inhibition of human T47D cells incubated for 48 hrs by sulforhodamine B assay; format: functional
SR = assay: Growth inhibition of human SR cells at 10^-5 M incubated for 48 hrs by sulforhodamine B assay relative to control; format: functional; details: read-out: GI
[1] = test system: Panel NCI-60 (60 carcinoma cell lines); assay: Therapeutic index, ratio of LC50 for human NCI60 cells to GI50 for human NCI60 cells measured after 48 hrs by sulforhodamine B assay; format: functional
C6 = assay: Induction of morphological changes in rat C6 cells assessed as increase in total length of processes measured after 24 hrs by inverted microscopy analysis relative to control; format: functional
Dihydrofolate reductase = molecular target: T1, Dihydrofolate reductase (Homo sapiens, UniProt P00374); assay: Inhibition of human dihydrofolate reductase using dihydrofolic acid as substrate preincubated for 1 hr in presence of NADPH followed by substrate addition by enzyme immunoassay
T1 sequence (P00374 whole entry): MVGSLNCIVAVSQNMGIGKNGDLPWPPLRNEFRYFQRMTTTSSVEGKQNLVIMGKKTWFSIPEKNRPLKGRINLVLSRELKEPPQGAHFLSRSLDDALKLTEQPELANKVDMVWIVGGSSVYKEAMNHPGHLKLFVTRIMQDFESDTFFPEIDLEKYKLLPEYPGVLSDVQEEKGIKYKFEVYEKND

[2] = molecular target: T2, Dihydrofolate reductase (Homo sapiens) (UniProt P00374); assay: Binding affinity to human dihydrofolate reductase at 5 uM assessed as decrease in absorption band by UV-visible spectroscopic analysis
T2 sequence (whole entry): T1 sequence (P00374 whole entry)

[3] = read-out: pLC50 (the source's name) (converted)
[4] = read-out: LC50 (the source's name)

O=c1c2ccccc2n(CC2CO2)c2ccccc12 (racemic)
GI50 (EKVX): 1380 nM | CC50 (EKVX; [3]): > 100000 nM | TGI (EKVX; read-out: pTGI (converted)): 5010 nM | GI50 (HOP-92): 324 nM | CC50 (HOP-92; [3]): > 100000 nM | TGI (HOP-92; read-out: pTGI (converted)): 3890 nM | GI50 (NCI-H322M): 2000 nM | CC50 (NCI-H322M; [3]): > 100000 nM | TGI (NCI-H322M; read-out: pTGI (converted)): 7760 nM | GI50 (NCI-H460): 380 nM | CC50 (NCI-H460; [3]): > 100000 nM | TGI (NCI-H460; read-out: pTGI (converted)): 1660 nM | GI50 (HCC 2998): 275 nM | CC50 (HCC 2998; [3]): 10000 nM | TGI (HCC 2998; read-out: pTGI (converted)): 1020 nM | GI50 (KM12): 269 nM | CC50 (KM12; [3]): 7760 nM | TGI (KM12; read-out: pTGI (converted)): 977 nM | GI50 (SF-268; read-out: GI50): 160 nM | CC50 (SF-268; [4]): > 100000 nM | GI50 (SF-268; read-out: pGI50 (converted)): 170 nM | CC50 (SF-268; [3]): > 100000 nM | TGI (SF-268; read-out: pTGI (converted)): 1120 nM | GI50 (SF-539): 347 nM | CC50 (SF-539; [3]): > 100000 nM | TGI (SF-539; read-out: pTGI (converted)): 1780 nM | GI50 (SNB-19): 490 nM | CC50 (SNB-19; [3]): > 100000 nM | TGI (SNB-19; read-out: pTGI (converted)): 4370 nM | GI50 (SNB-75): 269 nM | CC50 (SNB-75; [3]): 6310 nM | TGI (SNB-75; read-out: pTGI (converted)): 1860 nM | GI50 (U-251): 282 nM | CC50 (U-251; [3]): > 100000 nM | TGI (U-251; read-out: pTGI (converted)): 1350 nM | GI50 (SK-MEL-28): 407 nM | CC50 (SK-MEL-28; [3]): 11000 nM | TGI (SK-MEL-28; read-out: pTGI (converted)): 1950 nM | GI50 (OVCAR-3): 288 nM | CC50 (OVCAR-3; [3]): > 100000 nM | TGI (OVCAR-3; read-out: pTGI (converted)): 1510 nM | GI50 (OVCAR-4): 813 nM | CC50 (OVCAR-4; [3]): > 100000 nM | TGI (OVCAR-4; read-out: pTGI (converted)): 3980 nM | GI50 (OVCAR-5): 513 nM | CC50 (OVCAR-5; [3]): 24000 nM | TGI (OVCAR-5; read-out: pTGI (converted)): 3630 nM | GI50 (OVCAR-8): 148 nM | CC50 (OVCAR-8; [3]): > 100000 nM | TGI (OVCAR-8; read-out: pTGI (converted)): 1320 nM | GI50 (NCI/ADR-RES): 257 nM | CC50 (NCI/ADR-RES; [3]): > 100000 nM | TGI (NCI/ADR-RES; read-out: pTGI (converted)): 1100 nM | GI50 (786-0): 372 nM | CC50 (786-0; [3]): > 100000 nM | TGI (786-0; read-out: pTGI (converted)): 5250 nM | GI50 (A498): 1740 nM | CC50 (A498; [3]): 7240 nM | TGI (A498; read-out: pTGI (converted)): 3550 nM | GI50 (ACHN; read-out: GI50): 90 nM | CC50 (ACHN; [4]): 790 nM | GI50 (ACHN; read-out: pGI50 (converted)): 95.5 nM | CC50 (ACHN; [3]): 794 nM | TGI (ACHN; read-out: pTGI (converted)): 282 nM | GI50 (SN12C): 229 nM | CC50 (SN12C; [3]): 6170 nM | TGI (SN12C; read-out: pTGI (converted)): 1200 nM | GI50 (UO-31): 178 nM | TGI (UO-31; read-out: pTGI (converted)): 407 nM | GI50 (PC-3): 331 nM | CC50 (PC-3; [3]): > 100000 nM | TGI (PC-3; read-out: pTGI (converted)): 4790 nM | GI50 (BT-549): 339 nM | CC50 (BT-549; [3]): 66100 nM | TGI (BT-549; read-out: pTGI (converted)): 3160 nM | GI50 (T47D): 891 nM | CC50 (T47D; [3]): > 100000 nM | TGI (T47D; read-out: pTGI (converted)): 5500 nM | inhibition of growth at 10 µM (SR): 91% | TI [1]: 28 | Activity (C6): 16 - 18% | IC50 (Dihydrofolate reductase): 20 nM | Activity [2]: Active
